Experiments:
[1] = biological target: T1, mouse lung beta2 receptors (Mus musculus, UniProt P18762); test: beta-blocking activity: binding test towards beta2 lung receptors in mouse
T1 construct: beta2 lung receptors in mouse; from tissue; host or cells: mouse lung
From the text: (§1) Moreover the beta-blocking activity has been tested with i binding tests both towards beta1 heart receptors and beta2 lung receptors in mouse according to methods described in J. Biol. Chem., 253, 5090, (1978) and Br. J. Pharmacol., 68, 57, (1980).

[2] = biological target: T2, mouse heart beta1 receptors (Mus musculus, UniProt P34971); test: beta-blocking activity: binding test towards beta1 heart receptors in mouse
T2 construct: beta1 heart receptors; from tissue; host or cells: mouse heart
T2 sequence (P34971 whole entry): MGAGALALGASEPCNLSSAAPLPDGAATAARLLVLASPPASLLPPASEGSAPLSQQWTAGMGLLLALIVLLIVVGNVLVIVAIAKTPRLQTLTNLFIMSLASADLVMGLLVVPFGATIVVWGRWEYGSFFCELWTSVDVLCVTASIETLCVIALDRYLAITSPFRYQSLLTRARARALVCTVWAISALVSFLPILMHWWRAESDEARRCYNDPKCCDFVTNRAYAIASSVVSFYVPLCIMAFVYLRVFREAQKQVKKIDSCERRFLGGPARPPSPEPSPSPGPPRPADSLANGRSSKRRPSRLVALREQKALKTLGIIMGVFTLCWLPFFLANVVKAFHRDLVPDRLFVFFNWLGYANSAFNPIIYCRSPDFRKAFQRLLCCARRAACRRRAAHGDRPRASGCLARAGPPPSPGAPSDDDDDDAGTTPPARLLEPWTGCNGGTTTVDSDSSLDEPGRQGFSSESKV
From the text: as §1

rabbit mesenteric artery = test: Calcium antagonist activity: antagonizing the effect of Ca++ on preparations of rabbit mesenteric artery in Krebs depolarizer; assay type: cell-based; settings: Oryctolagus cuniculus, Ca++ submaximal concentration 3 mM
Method: Calcium antagonist activity of the compounds of formula I has been tested as capability of antagonizing the effect of Ca^++ submaximal concentrations (3 mM) on preparations of rabbit mesenteric artery in Krebs depolarizer, prepared according to Towart "J. Cardiovasc. Pharmacol." 4, 895, (1982).

T1 sequence (P18762 whole entry): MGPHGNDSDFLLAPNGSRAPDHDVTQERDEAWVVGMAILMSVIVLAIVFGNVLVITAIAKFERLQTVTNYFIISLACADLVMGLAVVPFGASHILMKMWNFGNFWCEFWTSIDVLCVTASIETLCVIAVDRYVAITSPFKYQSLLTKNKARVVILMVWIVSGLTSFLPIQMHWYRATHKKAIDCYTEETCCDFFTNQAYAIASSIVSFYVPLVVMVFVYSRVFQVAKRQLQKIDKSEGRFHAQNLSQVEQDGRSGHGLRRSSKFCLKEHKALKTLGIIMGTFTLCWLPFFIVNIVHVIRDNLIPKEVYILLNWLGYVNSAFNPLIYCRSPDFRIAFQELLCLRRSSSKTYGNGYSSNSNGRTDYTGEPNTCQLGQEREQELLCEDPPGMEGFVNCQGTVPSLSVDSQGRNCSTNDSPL

Compound | Ki [1] [µM] | Ki [2] [µM] | IC50 (rabbit mesenteric artery) [µM]
CCOC(=O)C1=C(C)Nc2cnn(CCNCC(O)COc3ccccc3OC)c(=O)c2C1c1cccc([N+](=O)[O-])c1 (stereo not drawn) [Compound A, Ethyl 2-methyl-4-(3-nitrophenyl)-5-oxo-6-(2-(2-hydroxy-3-(2-methoxyphenoxy)-propylamino)-ethyl)-1,4,5,6-tetrahydro-pyrido(2,3-d)pyridaxine-3-carboxylate] | 0.287 | 0.345 | 0.24
CCOC(=O)C1=C(C)Nc2cnn(CC(C)(C)NCC(O)COc3ccccc3OC)c(=O)c2C1c1cccc([N+](=O)[O-])c1 (stereo not drawn) [Compound B] | 0.071 | 0.142 | 0.77

— patent US5025011A, “Fused pyridines active on the cardiovascular system” (SIMES, Societa Italiana Medicinali e Sintetici S.p.A., priority 1988, dated 1991)
